The compounds below were run against Casein kinase I isoform gamma-2 (Homo sapiens) (UniProt P78368) (assay: ligand binding to human CK1 gamma-2 kinase – biophysical, DSF, SYPRO orange, recombinant protein (AID 384)). Conditions: recombinant CSNK1G2, DSF thermal shift, at 10 µM, protein 2 µM, buffer 10 mM HEPES, NaCl 100 mM, stronger effect = higher value.
Sequence of Casein kinase I isoform gamma-2 (Homo sapiens) (P78368 whole entry, looked up, canonical isoform): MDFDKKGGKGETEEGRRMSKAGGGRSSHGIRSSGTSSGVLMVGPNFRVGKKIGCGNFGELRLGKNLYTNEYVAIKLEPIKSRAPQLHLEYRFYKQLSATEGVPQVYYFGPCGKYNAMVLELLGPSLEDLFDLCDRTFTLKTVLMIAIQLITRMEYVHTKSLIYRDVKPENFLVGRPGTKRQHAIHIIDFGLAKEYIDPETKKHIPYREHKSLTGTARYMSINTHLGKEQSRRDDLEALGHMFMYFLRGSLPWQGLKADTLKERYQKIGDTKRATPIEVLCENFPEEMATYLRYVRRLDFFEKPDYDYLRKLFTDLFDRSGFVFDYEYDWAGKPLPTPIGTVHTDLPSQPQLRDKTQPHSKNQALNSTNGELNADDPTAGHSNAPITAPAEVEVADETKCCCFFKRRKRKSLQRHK

| Structure (SMILES) | Tm shift [Celsius] |
| --- | --- |
| COc1cc(O)c2c(c1)oc(=O)c1c3cc(O)c(O)cc3oc21 | 5.16 |
| O=C1C(=O)C(c2cc(O)c(O)c(O)c2)Oc2cc(O)cc(O)c21 (configuration not stated) | 3.74 |
| CCn1cnc2c(Nc3cccc(Cl)c3)nc(N[C@@H]3CCCC[C@@H]3N)nc21 | 3.79 |
| COc1cc(/C=C/C(=O)CC(=O)/C=C/c2ccc(O)c(OC)c2)ccc1O | 4.92 |
| Nc1ncnc2c1c(I)cn2[C@@H]1O[C@H](CO)C(O)C1O (some centres not stated) | 4.69 |
| Clc1ccc(Nc2ncc(-c3cn[nH]c3)n3ccnc23)cc1 | 3.76 |
| CC(C)C(CO)Nc1nc(Nc2cccc(Cl)c2)c2ncn(C(C)C)c2n1 (configuration not stated) | 4.92 |
| CC(C)n1cnc2c(Nc3cccc(Cl)c3)nc(NCCO)nc21 | 5.58 |
| CCN(CC)CCNC(=O)c1c(C)[nH]c(/C=C2\C(=O)Nc3ccc(Cl)cc32)c1C | 4.06 |
| O=c1c(O)c(-c2ccc(O)c(O)c2)oc2cc(O)ccc12 | 3.19 |
| NC1=N/C(=C2\CCNC(=O)c3[nH]ccc32)C(=O)N1 | 3.67 |
| NC1=N/C(=C2/CCNC(=O)c3[nH]c(Br)cc32)C(=O)N1 | 8.12 |
| O=c1cc(-c2ccc(O)c(O)c2)oc2cc(O)cc(O)c12 | 4.55 |

Same assay, conditions: recombinant CSNK1G2, DSF thermal shift, at 10 µM, protein 2 µM, buffer 10 mM HEPES, pH 7.5, NaCl 150 mM, stronger effect = higher value

| Structure (SMILES) | Tm shift [Celsius] |
| --- | --- |
| O=Nc1c(-c2c(O)[nH]c3ccc(I)cc23)[nH]c2ccccc12 | 3.6 |
| NC(=O)c1ccc(-c2nc(-c3ccc4c(c3)OCCO4)c(-c3ccccn3)[nH]2)cc1 | 4.3 |
| CSc1nc(-c2ccnc(NC(C)c3ccccc3)c2)c(-c2ccc(F)cc2)[nH]1 (configuration not stated) | 3.4 |
| O=c1c(O)c(-c2ccc(O)c(O)c2)oc2cc(O)cc(O)c12 | 3.1 |
| COc1ccc(Nc2nc(N)c(C(=O)c3ccc(OC)cc3)s2)cc1 | 4.3 |
| Nc1ncnc2c1c(I)cn2[C@@H]1O[C@H](CO)C(O)C1O (some centres not stated) | 3.3 |
| Nc1nc(Nc2cccc(Cl)c2)sc1C(=O)c1ccc(F)cc1 | 3.4 |
| Cc1nc(N)sc1-c1ccnc(Nc2cccc(-n3oo3)c2)n1 | 4 |
| CC(C)n1cnc2c(Nc3cccc(Cl)c3)nc(NCCO)nc21 | 4.7 |
| O=Nc1c(-c2c(O)[nH]c3ccc(S(O)(O)O)cc23)[nH]c2ccccc12 | 3.1 |
| COc1ccc(Nc2nc(N)c(C(=O)c3ccc(Cl)cc3)s2)cc1 | 3.1 |
| O=c1[nH]c(O)c2c1c1c3ccccc3nc1n1cncc21 | 3.6 |
| Cc1cc(Nc2nc(-c3ccccc3)nc3ccccc23)n[nH]1 | 3.3 |
| NC1=N/C(=C2/CCNC(=O)c3[nH]c(Br)cc32)C(=O)N1 | 4.4 |

From PubChem BioAssay AID384 (SGCOxCompounds, 2006)
